Source: patent publication US10242153B2, “Method for determining the risk profile of neoplastic tissue” (NOVAZOI THERANOSTICS, priority 2014, dated 2019)
pKi: −log10 of the molar value.

Assays:
[1] = test system: BT-549 breast cancer cells; settings: BT-549 cells with amplified centrosomes; cited from earlier work
KIFC1 = KIFC1 (Homo sapiens, UniProt Q9BW19); settings: ATP-competitive and MT-noncompetitive; cited from earlier work
ZR-75-30 cells [2] = experiment: Induction of extra centrosomes and markers in ZR-75-30 cells by aphidicolin; format: cell-based
Protocol: Next, centrosome amplification was evaluated to determine the extent to which it directly and independently impacts the migration potential of a mildly aggressive cell line, ZR-75-30. […] In particular, it was of interest to evaluate whether generation of extra centrosomes (by genetic and pharmacological means) impacts migration and invasion kinetics by experimentally inducing centrosome amplification in these cells by aphidicolin treatment (5 μg/ml for 24 h).
Upon treatment with aphidicolin, centrosome amplification was confirmed by immunofluorescence staining for γ-tubulin (green) (data not shown) and changes in γ-tubulin and centrin levels detectable by Western blot analysis.
Accordingly, these cells can be pharmacologically manipulated with aphidicolin to generate extra centrosomes. […] Following aphidicolin wash-out, cells were stained using anti-centrin-2 antibodies to verify extra centrosomes by immunofluorescence confocal microscopy. About ˜60% ZR-75-30 cells generated extra centrosomes (6-8 per cell) and were evaluated for their sensitivity to the three drugs, griseofulvin, bromonoscapine, and PJ34, and compared with parent ZR-75-30 cells with normal centrosomes.

ZR-75-30 cells [3] = experiment: Wound healing assay, ZR-75-30 cells; format: cell-based; settings: aphidicolin-treated cells; control 40 h
Protocol: (§1) To assess the migratory capacity of aphidicolin treated cells (˜60% cells harboring extra centrosomes) as compared to control cells, a a classical wound healing assay was performed.

ZR-75-30 cells [4] = experiment: Boyden chamber invasion assay, ZR-75-30 cells; format: cell-based; settings: aphidicolin-treated cells
Protocol: Trajectories of 10 cells each were captured over 18 h with 108 images per movie (6 frames/h). Data were analyzed using Volocity3.0 software (Improvision, Coventry, UK), whereby average net displacement, displacement rate and velocity measurements were generated for the identified cell tracks with respect to cell centroids. Quantitation of net displacement (Panel A), displacement rate (Panel B) and track velocity (Panel C) for cells with 1 and >2 centrosomes are shown as bar graphs. […] Panel E depicts a bar graph showing quantitation of migration rate of treated and untreated ZR-75-30 cells in a wound healing assay. Panel F depicts a bar graph showing the number of migrated cells in a Boyden chamber assay performed with aphidicolin-treated (APD) and untreated (C) ZR-75-30 cells.
as §1

[5] = test system: MCF-10A near normal breast epithelial cells; experiment: Spindle multipolarity and cell death, MCF-10A cells; format: cell-based; settings: same concentration (10 μM)
[6] = test system: MDA-MB-231 breast cancer cells; experiment: Spindle multipolarity and cell death, MDA-MB-231 cells; format: cell-based, human; settings: 18 h, 10 μM
Protocol: To investigate a possible role for centrosome declustering drugs (such as brominated noscapines) to induce high-grade spindle multipolarity leading to cell death during mitosis, MDA-MB-231 breast cancer cells were treated with brominated noscapine. “Scattering” of amplified centrosomes in MDA-MB-231 breast cancer cells upon treatment with brominated noscapine was observed (data not shown). […] Based upon this metaphasic occurrence of cell death, this caspase-mediated cellular demise reflects a “metaphase catastrophe”.

KIFC1, sequence (Q9BW19 whole entry): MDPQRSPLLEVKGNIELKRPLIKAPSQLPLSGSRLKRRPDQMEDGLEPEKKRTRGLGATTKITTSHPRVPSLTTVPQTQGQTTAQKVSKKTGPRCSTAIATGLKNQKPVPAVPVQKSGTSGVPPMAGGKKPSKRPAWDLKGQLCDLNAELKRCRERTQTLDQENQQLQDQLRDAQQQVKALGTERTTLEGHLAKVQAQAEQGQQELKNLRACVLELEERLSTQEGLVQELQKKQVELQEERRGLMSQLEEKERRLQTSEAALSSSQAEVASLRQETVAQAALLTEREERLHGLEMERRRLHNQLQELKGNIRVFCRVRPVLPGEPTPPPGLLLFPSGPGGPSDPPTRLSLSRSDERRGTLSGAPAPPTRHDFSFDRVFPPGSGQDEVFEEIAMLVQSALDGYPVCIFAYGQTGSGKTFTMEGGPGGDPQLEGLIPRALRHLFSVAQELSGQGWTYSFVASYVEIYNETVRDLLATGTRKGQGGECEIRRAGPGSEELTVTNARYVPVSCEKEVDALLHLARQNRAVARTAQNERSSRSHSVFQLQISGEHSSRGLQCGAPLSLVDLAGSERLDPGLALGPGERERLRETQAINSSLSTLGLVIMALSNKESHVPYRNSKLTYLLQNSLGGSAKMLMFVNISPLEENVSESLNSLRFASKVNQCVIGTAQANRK
KIFC1, sequence (P68363 whole entry partner): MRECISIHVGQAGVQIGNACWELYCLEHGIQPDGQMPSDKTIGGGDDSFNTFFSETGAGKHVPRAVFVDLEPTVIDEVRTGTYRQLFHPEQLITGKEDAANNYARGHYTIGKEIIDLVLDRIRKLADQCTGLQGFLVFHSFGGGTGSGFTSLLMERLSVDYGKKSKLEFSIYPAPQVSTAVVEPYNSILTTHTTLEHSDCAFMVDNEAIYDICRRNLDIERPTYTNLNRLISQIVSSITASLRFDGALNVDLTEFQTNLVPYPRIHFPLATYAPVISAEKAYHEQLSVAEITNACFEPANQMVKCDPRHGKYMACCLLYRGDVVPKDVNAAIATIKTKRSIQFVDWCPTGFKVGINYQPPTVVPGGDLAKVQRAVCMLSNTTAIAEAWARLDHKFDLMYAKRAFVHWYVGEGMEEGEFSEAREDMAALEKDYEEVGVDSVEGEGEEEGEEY
KIFC1, sequence (Q9BVA1 whole entry partner): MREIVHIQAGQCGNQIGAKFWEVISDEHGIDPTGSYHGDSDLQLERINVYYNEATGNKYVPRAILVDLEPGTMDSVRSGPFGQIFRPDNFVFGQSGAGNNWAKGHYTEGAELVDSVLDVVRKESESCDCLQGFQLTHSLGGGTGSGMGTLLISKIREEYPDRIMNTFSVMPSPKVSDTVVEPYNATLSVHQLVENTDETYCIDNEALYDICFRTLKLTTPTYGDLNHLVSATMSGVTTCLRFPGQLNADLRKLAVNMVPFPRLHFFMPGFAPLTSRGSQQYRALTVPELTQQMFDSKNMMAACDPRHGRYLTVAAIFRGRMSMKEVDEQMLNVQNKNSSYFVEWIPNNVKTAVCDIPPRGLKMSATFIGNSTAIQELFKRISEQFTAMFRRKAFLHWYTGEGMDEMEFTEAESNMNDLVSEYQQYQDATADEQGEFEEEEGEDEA

Compound: CCCc1cc(C(=O)N[C@H](Cc2ccc(-c3cccc(OC(F)(F)F)c3)nc2)C(=O)N[C@@H]2CCNC2)sc1C [AZ82]
- centrosome declustering [1]: causes centrosome declustering
- pKi (KIFC1): 7.37

Compound: C[C@@]1(CO)[C@H](O)CC[C@@]2(C)[C@H]1CC[C@H]1C[C@@H]3C[C@@]12CC[C@]3(O)CO [aphidicolin]
- cells harboring extra centrosomes (ZR-75-30 cells [2]; 5 μg/ml for 24 h): ~60%
- extra centrosomes per cell (ZR-75-30 cells [2]; 24 h treatment, after wash-out): 6-8 per cell
- vimentin levels (immunoblot) (ZR-75-30 cells [2]; following aphidicolin treatment): significant increase in vimentin levels
- time to fill the scratch wound (ZR-75-30 cells [3]): 18 h
- invasion capacity (ZR-75-30 cells [4]): increase in invasion capacity

Compound: brominated noscapine
- spindle multipolarity and cell death [5]: did not exhibit any multipolarity or cell death
- spindle phenotype and cell death [6]: highly aberrant multipolar spindles that succumb to cell death
